In brackets after ≈: the same amount, converted by molar mass. Activity calls are given as the source filed them. No cut-off for these calls is given here.
Tests used:
Assay type in all cases: functional
[1] = tested on: Staphylococcus aureus; experiment: Antibacterial activity against Staphylococcus aureus ATCC 29213 assessed as zone of inhibition at 400 ug/disc after 18 hrs by disc diffusion method; settings: ATCC 29213, 18 h, read-out: DIZ
[2] = tested on: Staphylococcus epidermidis; experiment: Antibacterial activity against Staphylococcus epidermidis ATCC 12228 after 18 hrs by twofold serial agar dilution technique; settings: ATCC 12228, 18 h
[3] = tested on: Pseudomonas aeruginosa; experiment: Antibacterial activity against Pseudomonas aeruginosa ATCC 27853 after 18 hrs by twofold serial agar dilution technique
[4] = tested on: Staphylococcus aureus; experiment: Antibacterial activity against hospital-acquired methicillin-sensitive Staphylococcus aureus 443/11 after 18 hrs by twofold serial agar dilution technique; settings: 443/11, 18 h
[5] = tested on: Staphylococcus aureus; experiment: Antibacterial activity against hospital-acquired methicillin-resistant Staphylococcus aureus 451/11 after 18 hrs by twofold serial agar dilution technique; settings: 451/11, 18 h
[6] = tested on: Staphylococcus epidermidis; experiment: Antibacterial activity against Staphylococcus epidermidis ATCC 12228 assessed as zone of inhibition at 400 ug/disc after 18 hrs by disc diffusion method; settings: ATCC 12228, 18 h, read-out: DIZ
[7] = tested on: Staphylococcus aureus; experiment: Antibacterial activity against hospital-acquired methicillin-sensitive Staphylococcus aureus 440/11 after 18 hrs by twofold serial agar dilution technique; settings: 440/11, 18 h
[8] = tested on: Candida albicans; experiment: Antifungal activity against Candida albicans ATCC 10231 after 24 hrs by twofold serial agar dilution technique
[9] = tested on: Staphylococcus aureus; experiment: Antibacterial activity against Staphylococcus aureus ATCC 6538 assessed as zone of inhibition at 400 ug/disc after 18 hrs by disc diffusion method; settings: ATCC 6538, 18 h, read-out: DIZ
[10] = tested on: Staphylococcus aureus; experiment: Antibacterial activity against Staphylococcus aureus ATCC 25923 assessed as zone of inhibition at 400 ug/disc after 18 hrs by disc diffusion method; settings: ATCC 25923, 18 h, read-out: DIZ
[11] = tested on: Staphylococcus aureus; experiment: Antibacterial activity against hospital-acquired methicillin-resistant Staphylococcus aureus 399/10 after 18 hrs by twofold serial agar dilution technique; settings: 399/10, 18 h
[12] = tested on: Staphylococcus aureus; experiment: Antibacterial activity against Staphylococcus aureus ATCC 29213 after 18 hrs by twofold serial agar dilution technique; settings: ATCC 29213, 18 h
[13] = tested on: Staphylococcus aureus; experiment: Antibacterial activity against hospital-acquired methicillin-sensitive Staphylococcus aureus 441/11 after 18 hrs by twofold serial agar dilution technique; settings: 441/11, 18 h
[14] = tested on: Staphylococcus aureus; experiment: Antibacterial activity against hospital-acquired methicillin-resistant Staphylococcus aureus 400/10 after 18 hrs by twofold serial agar dilution technique; settings: 400/10, 18 h
[15] = tested on: Staphylococcus aureus; experiment: Antibacterial activity against hospital-acquired methicillin-resistant Staphylococcus aureus 394/10 after 18 hrs by twofold serial agar dilution technique; settings: 394/10, 18 h
[16] = tested on: Staphylococcus aureus; experiment: Antibacterial activity against hospital-acquired methicillin-resistant Staphylococcus aureus 393/10 after 18 hrs by twofold serial agar dilution technique; settings: 393/10, 18 h
[17] = tested on: Proteus vulgaris; experiment: Antibacterial activity against Proteus vulgaris NCTC 4635 after 18 hrs by twofold serial agar dilution technique
[18] = tested on: Candida parapsilosis; experiment: Antifungal activity against Candida parapsilosis ATCC 22019 after 24 hrs by twofold serial agar dilution technique
[19] = tested on: Staphylococcus aureus; experiment: Antibacterial activity against hospital-acquired methicillin-resistant Staphylococcus aureus 401/10 after 18 hrs by twofold serial agar dilution technique; settings: 401/10, 18 h
[20] = tested on: Staphylococcus aureus; experiment: Antibacterial activity against Staphylococcus aureus NCTC 4163 assessed as zone of inhibition at 400 ug/disc after 18 hrs by disc diffusion method; settings: NCTC 4163, 18 h, read-out: DIZ
[21] = tested on: Staphylococcus aureus; experiment: Antibacterial activity against Staphylococcus aureus ATCC 6538 after 18 hrs by twofold serial agar dilution technique; settings: ATCC 6538, 18 h
[22] = tested on: Escherichia coli; experiment: Antibacterial activity against Escherichia coli ATCC 10538 after 18 hrs by twofold serial agar dilution technique
[23] = tested on: Escherichia coli; experiment: Antibacterial activity against Escherichia coli NCTC 8196 after 18 hrs by twofold serial agar dilution technique
[24] = tested on: Staphylococcus aureus; experiment: Antibacterial activity against hospital-acquired methicillin-sensitive Staphylococcus aureus 446/11 after 18 hrs by twofold serial agar dilution technique; settings: 446/11, 18 h
[25] = tested on: Escherichia coli; experiment: Antibacterial activity against Escherichia coli ATCC 25922 after 18 hrs by twofold serial agar dilution technique
[26] = tested on: Pseudomonas aeruginosa; experiment: Antibacterial activity against Pseudomonas aeruginosa NCTC 6749 after 18 hrs by twofold serial agar dilution technique
[27] = tested on: Staphylococcus aureus; experiment: Antibacterial activity against hospital-acquired methicillin-sensitive Staphylococcus aureus 444/11 after 18 hrs by twofold serial agar dilution technique; settings: 444/11, 18 h
[28] = tested on: Staphylococcus epidermidis; experiment: Antibacterial activity against Staphylococcus epidermidis ATCC 35984 assessed as zone of inhibition at 400 ug/disc after 18 hrs by disc diffusion method; settings: ATCC 35984, 18 h, read-out: DIZ
[29] = tested on: Staphylococcus aureus; experiment: Antibacterial activity against hospital-acquired methicillin-resistant Staphylococcus aureus 482/11 after 18 hrs by twofold serial agar dilution technique; settings: 482/11, 18 h
[30] = tested on: Staphylococcus aureus; experiment: Antibacterial activity against hospital-acquired methicillin-resistant Staphylococcus aureus 452/11 after 18 hrs by twofold serial agar dilution technique; settings: 452/11, 18 h
[31] = tested on: Candida albicans; experiment: Antifungal activity against Candida albicans ATCC 90028 after 24 hrs by twofold serial agar dilution technique
[32] = tested on: Staphylococcus aureus; experiment: Antibacterial activity against hospital-acquired methicillin-sensitive Staphylococcus aureus 442/11 after 18 hrs by twofold serial agar dilution technique; settings: 442/11, 18 h
[33] = tested on: Staphylococcus aureus; experiment: Antibacterial activity against Staphylococcus aureus NCTC 4163 after 18 hrs by twofold serial agar dilution technique; settings: NCTC 4163, 18 h
[34] = tested on: Staphylococcus aureus; experiment: Antibacterial activity against hospital-acquired methicillin-resistant Staphylococcus aureus 450/11 after 18 hrs by twofold serial agar dilution technique; settings: 450/11, 18 h
[35] = tested on: Staphylococcus aureus; experiment: Antibacterial activity against hospital-acquired methicillin-sensitive Staphylococcus aureus 449/11 after 18 hrs by twofold serial agar dilution technique; settings: 449/11, 18 h
[36] = tested on: Staphylococcus epidermidis; experiment: Antibacterial activity against Staphylococcus epidermidis ATCC 35984 after 18 hrs by twofold serial agar dilution technique; settings: ATCC 35984, 18 h
[37] = tested on: Staphylococcus aureus; experiment: Antibacterial activity against hospital-acquired methicillin-sensitive Staphylococcus aureus 447/11 after 18 hrs by twofold serial agar dilution technique; settings: 447/11, 18 h
[38] = tested on: Staphylococcus aureus; experiment: Antibacterial activity against hospital-acquired methicillin-sensitive Staphylococcus aureus 448/11 after 18 hrs by twofold serial agar dilution technique; settings: 448/11, 18 h
[39] = tested on: Staphylococcus aureus; experiment: Antibacterial activity against hospital-acquired methicillin-sensitive Staphylococcus aureus 445/11 after 18 hrs by twofold serial agar dilution technique; settings: 445/11, 18 h
[40] = tested on: Staphylococcus aureus; experiment: Antibacterial activity against hospital-acquired methicillin-resistant Staphylococcus aureus 481/11 after 18 hrs by twofold serial agar dilution technique; settings: 481/11, 18 h
[41] = tested on: Pseudomonas aeruginosa; experiment: Antibacterial activity against Pseudomonas aeruginosa ATCC 15442 after 18 hrs by twofold serial agar dilution technique
[42] = tested on: Bordetella bronchiseptica; experiment: Antibacterial activity against Bordetella bronchiseptica ATCC 4617 after 18 hrs by twofold serial agar dilution technique
[43] = tested on: Staphylococcus aureus; experiment: Antibacterial activity against Staphylococcus aureus ATCC 25923 after 18 hrs by twofold serial agar dilution technique; settings: ATCC 25923, 18 h

## CC[C@@H](C(=O)[C@@H](C)[C@@H](O)[C@H](C)[C@@H]1O[C@@H]([C@@H](CC)C(=O)Nc2ccccc2)CC[C@@H]1C)[C@H]1O[C@]2(C=C[C@@H](O)[C@]3(CC[C@@](C)([C@H]4CC[C@](O)(CC)[C@H](C)O4)O3)O2)[C@H](C)C[C@@H]1C
[1]
  zone of inhibition at 400 µg/disc: 21 mm
[2]
  MIC: 2 µg/mL (≈ 2.42 µM)
[3]
  Activity: inactive
[4]
  MIC: 2 µg/mL (≈ 2.42 µM)
[5]
  MIC: 4 µg/mL (≈ 4.84 µM)
[6]
  zone of inhibition at 400 µg/disc: 22 mm
[7]
  MIC: 2 µg/mL (≈ 2.42 µM)
[8]
  Activity: inactive
[9]
  zone of inhibition at 400 µg/disc: 20 mm
[10]
  zone of inhibition at 400 µg/disc: 18 mm
[11]
  MIC: 4 µg/mL (≈ 4.84 µM)
[12]
  MIC: 2 µg/mL (≈ 2.42 µM)
[13]
  MIC: 2 µg/mL (≈ 2.42 µM)
[14]
  MIC: 4 µg/mL (≈ 4.84 µM)
[15]
  MIC: 4 µg/mL (≈ 4.84 µM)
[16]
  MIC: 4 µg/mL (≈ 4.84 µM)
[17]
  Activity: inactive
[18]
  Activity: inactive
[19]
  MIC: 4 µg/mL (≈ 4.84 µM)
[20]
  zone of inhibition at 400 µg/disc: 19 mm
[21]
  MIC: 2 µg/mL (≈ 2.42 µM)
[22]
  Activity: inactive
[23]
  Activity: inactive
[24]
  MIC: 2 µg/mL (≈ 2.42 µM)
[25]
  Activity: inactive
[26]
  Activity: inactive
[27]
  MIC: 2 µg/mL (≈ 2.42 µM)
[28]
  zone of inhibition at 400 µg/disc: 20 mm
[29]
  MIC: 4 µg/mL (≈ 4.84 µM)
[30]
  MIC: 4 µg/mL (≈ 4.84 µM)
[31]
  Activity: inactive
[32]
  MIC: 2 µg/mL (≈ 2.42 µM)
[33]
  MIC: 2 µg/mL (≈ 2.42 µM)
[34]
  MIC: 4 µg/mL (≈ 4.84 µM)
[35]
  MIC: 2 µg/mL (≈ 2.42 µM)
[36]
  MIC: 4 µg/mL (≈ 4.84 µM)
[37]
  MIC: 2 µg/mL (≈ 2.42 µM)
[38]
  MIC: 2 µg/mL (≈ 2.42 µM)
[39]
  MIC: 2 µg/mL (≈ 2.42 µM)
[40]
  MIC: 4 µg/mL (≈ 4.84 µM)
[41]
  Activity: inactive
[42]
  Activity: inactive
[43]
  MIC: 2 µg/mL (≈ 2.42 µM)
